Results from US5086054A, “Novel arylcycloalkanepolyalkylamines” (SRI International, priority 1990, dated 1992).
“Also recorded” adds a separate entry of the source. Like-named read-outs stand apart in the source and are kept apart here.

Tests used:
[1] = biological target: T1, SIGMA RECEPTOR (Cavia porcellus, UniProt Q60492); test: Sigma receptor binding assay ([3H]-d-SKF-10,047 displacement, brain membranes); set-up: species or system guinea-pig (male Hartley)
T1 construct: Two milliter aliquots of the brain membrane preparation, containing 1.7 mg of protein; tissue Pel-Freeze (Rogers, Arkansas); host or cells: guinea-pig brains plus cerebella, membranes
T1 sequence (Q60492 whole entry): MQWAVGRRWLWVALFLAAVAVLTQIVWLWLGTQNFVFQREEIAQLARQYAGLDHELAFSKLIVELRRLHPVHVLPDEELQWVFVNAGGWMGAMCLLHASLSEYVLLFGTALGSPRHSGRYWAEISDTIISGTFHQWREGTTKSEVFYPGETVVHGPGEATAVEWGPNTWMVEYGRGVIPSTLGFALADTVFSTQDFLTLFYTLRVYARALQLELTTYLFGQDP
Description: (§1) This example illustrates testing of compounds in receptor binding assays.
(§2) Frozen brains from male Hartley guinea-pigs were obtained from Pel-Freeze (Rogers, Arkansas).
(§3) The brains plus cerebella were homogenized in 10 volumes (v/w) of 0.1M, pH 7.4, ice-cold Tris-HCl buffer with a Brinkmann polytron at setting 4 for 20 seconds. The homogenates were centrifuged at 20,000×g for 20 minutes at 4° C. The pellets were suspended in 10 volumes of ice-cold water and, after sitting on ice for 10 minutes, were centrifuged 30 minutes at 20,000×g at 4° C. The resulting pellets were resuspended in the above Tris buffer in ratio 1:100 (w/v) for σ receptor assays or in 5 mM Tris-HCl having pH 7.4, for PCP receptor assays. The final suspension was homogenized with a dounce glass-glass tissue grinder Wheaton "200", at small clearance (B), with three strokes before use. Two milliter aliquots of the brain membrane preparation, containing 1.7 mg of protein, were incubated in quadruplicate for one hour at 23° C. with competing mixture of ligand and radioligand. For σ receptors, [^3 H]-d-SKF-10,047, 2 nM was used. For PCP receptors, [^3 H] TCP [^3 H]-1-[1-(2-thienyl)cyclohexyl]piperidine), 1 nM was used. The nonspecific bindings were defined by 0.1 mM d-SKF-10,047 and 0.1 mM phencyclidine respectively for σ and PCP receptors. After incubation, free ligand was separated from bound ligand by rapid filtration through Whatman GF/C filters. The filters had been soaked before use in isoamyl alcohol-saturated water to prevent nonspecific [^3 H]-d-SKF-10,047 binding to the filter. In the PCP receptor assay, the filter was soaked in 0.5% polyethylenimine to reduce the filter binding of [^3 H]-TCP. After filtration, the trapped tissue was washed three times with 4 ml aliquots of 0.1 M ice-cold Tris buffer at pH 7.4 for σ receptors and 5 mM, ice-cold Tris buffer pH 7.4 for PCP receptors. The filters were transferred to 5 ml of liquid scintillation fluid and the retained radioactivity was measured by liquid scintillation spectrometry.

[2] = system: PCP RECEPTOR; test: PCP receptor binding assay ([3H]-TCP displacement, brain membranes); set-up: species or system guinea-pig (male Hartley); conditions: for IC50: read-out: PCP RECEPTOR IC50
Description: as §1, §2, §3
Programs in Biomed. 17:107 (1983)].

[3] = Table 1, slope of dose response curve
[4] = Table 2, aryl ring substituents
[5] = Table 1, mean ± error (n), read-out: SIGMA RECEPTOR IC50
[6] = SIGMA RECEPTOR IC50, Table 1, mean ± error (n)
[7] = Table 2, aryl ring substituents, read-out: SIGMA RECEPTOR IC50

Row | SMILES | potency at σ receptors (in words) [1] | SIGMA RECEPTOR SLOPE [1, 3] | SIGMA RECEPTOR SLOPE ([1]; Table 2) | potency at PCP receptors (in words) [2] | IC50 ([2]; Table 1, mean ± error (n)) [µM] | IC50 [2, 4] [µM] | IC50 [1, 5] [µM] | IC50 [1, 7] [µM] | selectivity for σ receptors (in words) [1] | further results
1 | c1ccc(C2(CN3CCCCC3)CCCCC2)cc1 [Compound 2] | increased the potency of the compound in the σ receptor assay | 0.66 ± 0.1 | 0.66 ± 0.1 | reduced the potency in the PCP receptor assay | 1.83 | 1.83 |  |  |  | SIGMA RECEPTOR SLOPE ([1]; Table 3): 0.66 ± 0.01; IC50 ([1]; Table 3, cycloalkyl ring size, read-out: SIGMA RECEPTOR IC50): 0.104 µM; increased potency for σ receptors ([1]; relative to PCP (1)): about 80 times; IC50 ([2]; Table 3, cycloalkyl ring size): 1.83 µM; decreased potency for PCP receptors ([2]; relative to PCP (1)): approximately 40 times
2 | C[N+]1(CCOC(=O)C2(c3ccccc3)CCCCC2)CCCCC1 [Compound 4] |  |  |  | reduced the potency in the PCP receptor assay; also recorded: drastically reduced potency for both σ and PCP receptors; also recorded: inactive in the PCP assay; also recorded: did not increase potency for PCP receptors | > 25 |  | > 25 |  |  | 
3 | c1ccc(C2(N3CCCC3)CCCCC2)cc1 [Compound 5, 1-(1-phenylcyclohexyl)pyrrolidine, reference compound] |  | 0.83 ± 0.06 |  |  | 0.11 ± 0.006 |  |  |  |  | IC50 [1, 6]: 7.73 µM
4 | c1ccc(C2(CN3CCCC3)CCCCC2)cc1 [Compound 6] | increased potency for σ receptors | 0.88 ± 0.07 | 0.88 ± 0.07 | already inactive at PCP receptors | 1.27 |  | 4.74 | 4.75 |  | 
5 | c1ccc(C2(CCN3CCCC3)CCCCC2)cc1 [Compound 7] |  | 1.22 ± 0.03 |  | decreased the potency in the PCP receptor assay | 1.72 |  | 0.141 |  |  | increased potency for σ receptors ([1]; relative to PCPY (5)): approximately 30 fold
6 | C[N+]1(CCOC(=O)C2(c3ccccc3)CCCCC2)CCCC1 [Compound 9] | σ receptor potency increased; also recorded: effectively reversed the potency for σ receptors | 0.62 ± 0.18 |  | inactive in the PCP assay; also recorded: did not increase potency for PCP receptors | > 25 |  | 0.242 |  |  | 
7 | c1ccc(C2(N3CCOCC3)CCCCC2)cc1 [Compound 10, 4-(1-phenylcyclohexyl)morpholine, reference compound] |  | 0.47 ± 0.02 |  |  | 0.633 ± 0.071 |  |  |  |  | IC50 [1, 6]: 2.53 µM
8 | c1ccc(C2(CN3CCOCC3)CCCCC2)cc1 [Compound 11] | increased potency for σ receptors | 0.60 ± 0.03 | 0.60 ± 0.03 | inactive in the PCP receptor assay | > 25 | > 25 | 0.71 |  |  | 
9 | CCN(CC)C1(c2ccccc2)CCCCC1 [Compound 13, N,N-diethyl-1-phenylcyclohexylamine, reference compound] |  | 0.40 ± 0.07 |  |  | 0.331 ± 0.034 |  |  |  |  | IC50 [1, 6]: 0.573 µM
10 | CCN(CC)CC1(c2ccccc2)CCCCC1 [Compound 14] | increased potency for σ receptors | 0.66 ± 0.17 | 0.66 ± 0.17 | inactive in the PCP receptor assay | > 25 | > 25 | 0.208 |  |  | 
11 | CC[N+](C)(CC)CCOC(=O)C1(c2ccccc2)CCCCC1 [Compound 16] | σ receptor potency increased; also recorded: effectively reversed the potency for σ receptors | 0.86 ± 0.07 |  | inactive in the PCP assay; also recorded: did not increase potency for PCP receptors | > 25 |  | 2.23 |  |  | 
12 | CN(C)C1(c2ccccc2)CCCCC1 [Compound 17, N,N-dimethyl-1-phenylcyclohexylamine, reference compound] |  | 0.53 ± 0.05 |  |  | 0.242 ± 0.008 |  |  |  |  | IC50 [1, 6]: 1.95 µM
13 | CN(C)CC1(c2ccccc2)CCCCC1 [Compound 18] | increased potency for σ receptors | 0.85 ± 0.07 | 0.85 ± 0.07 | inactive in the PCP receptor assay | > 25 | > 25 | 4.13 | 4.13 |  | 
14 | C[N+](C)(C)CCOC(=O)C1(c2ccccc2)CCCCC1 [Compound 20] |  | 1.22 ± 0.15 |  | inactive in the PCP assay; also recorded: did not increase potency for PCP receptors | > 25 |  | 12.3 |  |  | 
15 | Oc1cccc(C2(CN3CCCCC3)CCCCC2)c1 [Compound 21] | diminished binding to σ receptors |  |  |  |  | > 25 |  | > 25 |  | 
16 | Cc1ccc(C2(CN3CCCCC3)CCCCC2)cc1 [Compound 23] | slightly lower σ receptor potencies |  | 0.69 ± 0.01 |  |  | > 25 |  | 0.223 | substantially increases selectivity for σ receptors | 
17 | O=[N+]([O-])c1ccc(C2(CN3CCCCC3)CCCCC2)cc1 [Compound 24] | slightly lower σ receptor potencies |  | 0.47 ± 0.06 |  |  | > 25 |  | 0.249 | substantially increases selectivity for σ receptors | 
18 | Clc1cccc(C2(CN3CCCCC3)CCCCC2)c1 [Compound 25] | most potent at σ receptors |  | 0.69 ± 0.05 | showed some potency at PCP receptors |  | 1.83 |  |  | least specific | IC50 ([1]; read-out: IC50 at σ receptors): 0.071 µM
19 | COc1cccc(C2(CN3CCCCC3)CCCCC2)c1 [Compound 26] | slightly lower σ receptor potencies |  | 0.74 ± 0.07 |  |  | > 25 |  | 0.326 | substantially increases selectivity for σ receptors | 
20 | COc1ccc(C2(CN3CCCCC3)CCCCC2)cc1 [Compound 27] | slightly lower σ receptor potencies |  | 0.69 ± 0.04 |  |  | > 25 |  | 0.221 | substantially increases selectivity for σ receptors | 
21 | COc1ccc(C2(CN3CCCCC3)CCCCC2)cc1OC [Compound 28] | slightly lower σ receptor potencies; also recorded: poor to reasonable potency at σ sites |  | 0.56 ± 0.03 |  |  | > 25 |  | 0.387 ± 0.018 | substantially increases selectivity for σ receptors; also recorded: high selectivity for σ receptors | 
22 | Oc1cccc(C2(CN3CCCC3)CCCCC2)c1 [Compound 29] | only slight effect on σ receptor potency |  | 0.80 ± 0.07 |  |  | 1.32 |  | 1.08 | selectivity for σ receptors was poor | 
23 | Oc1ccc(C2(CN3CCCC3)CCCCC2)cc1 [Compound 30] | did not improve potency as much as the 3-hydroxy derivative |  | 0.78 ± 0.02 | inactive at PCP receptor sites |  | > 25 |  | 1.74 | considerably improved selectivity for σ receptors | 
24 | O=[N+]([O-])c1ccc(C2(CN3CCCC3)CCCCC2)cc1 [Compound 31] | somewhat potent |  | 0.65 ± 0.05 | inactive at PCP sites |  | > 25 |  | 0.282 | very selective for σ receptors | 
25 | Clc1cccc(C2(CN3CCCC3)CCCCC2)c1 [Compound 32] |  |  | 0.73 ± 0.16 |  |  | 0.867 ± 0.009 |  | 0.248 |  | 
26 | COc1cccc(C2(CN3CCCC3)CCCCC2)c1 [Compound 33] |  |  | 0.73 ± 0.08 |  |  | 0.552 ± 0.02 |  | 1.19 |  | 
